Experimental data reported in patent US20230339835A1, “2,3,5-TRIMETHYL-6-NONYLCYCLOHEXA-2,5-DIENE-1,4-DIONE FOR SUPPRESSING AND TREATING ALPHA-SYNUCLEINOPATHIES, TAUOPATHIES, AND OTHER DISORDERS” (PTC THERAPEUTICS, INC., priority 2018, published 2023).
Where two headings read alike, the source gives them in different places.

How the values were obtained:
[1] = Solvent screening for recrystallization (solubility of C9); format: physicochemical; settings: for Hot to RT result: allowed to cool to RT; for RT to Cold result: cooled to 0° C.; for Hot Result: heated to approximately 45-50° C.
Protocol: 100 mg of C9 was placed in test tubes and solvent added and any change noted. Samples were then heated briefly with a heat gun (heating to approximately 45-50° C.), the solubility noted, allowed to cool to RT and solubility noted, then cooled to 0° C. and the solubility noted.

[2] = system: AD patient fibroblasts AG04402; test: Rescue of AD patient fibroblasts from BSO plus iron-induced oxidative stress, AG04402; format: cell-based; settings: Homo sapiens, Fibroblast
Protocol: An initial screen was performed to identify the effectiveness of compounds for the amelioration of PD and AD. Test samples and solvent controls were tested for their ability to rescue PD and AD fibroblasts stressed by addition of L-buthionine-(S,R)-sulfoximine (BSO, a specific inhibitor of GSH synthetase) plus iron (e.g. iron citrate), in a similar manner as that described in Jauslin et al., Hum. Mol. Genet. 11(24):3055 (2002), Jauslin et al., FASEB J. 17:1972-4 (2003), and International Patent Application WO 2004/003565. This specific BSO-mediated cell death was prevented or ameliorated by administration of compounds described herein.
The AD experiments were performed as follows. PD experiments were performed in a similar manner; certain specific conditions are noted below in Table 1A.
MEM (a medium enriched in amino acids and vitamins) and Medium 199 (M199) with Earle's Balanced Salts (EBS), without phenol red, were purchased from Invitrogen. Fetal Calf Serum was obtained from Corning. […]
100 microliters of Calcein AM (1 microM) in PBS+Ca+Mg was then added to each well. […] After that time fluorescence (excitation/emission wavelengths of 485 nm and 525 nm, respectively) was read on a Spectramax fluorescence reader. Data were analyzed using standard four-parameter curve fit algorithms (XLFit or Prism) to determine the EC50 concentration for each compound.

[3] = Brain and plasma exposure of C9 in mice after oral dosing; format: in vivo; settings: mouse, 300 mg/kg PO in sesame oil, C57BL/6 mice
Protocol: A 300 mg/kg dose of C9 was administered as a sesame oil solution via oral gavage to four C57BL/6 mice. Eight hours after compound administration, plasma and brain exposure were measured (Table 10).

[4] = 70% IPA/H2O, approx conc. 100 mg/mL
[5] = 80% EtOH, approx conc. 50 mg/mL
[6] = 80% EtOH, approx conc. 100 mg/mL
[7] = 95% EtOH, approx conc. 100 mg/mL

RT result [1, 4]: slightly
Hot to RT result [1, 4]: slightly soluble
RT to Cold result [1, 4]: slightly soluble-
Hot Result [1, 4]: mostly
RT result [1, 5]: partially
Hot to RT result [1, 5]: partially
RT to Cold result [1, 5]: slightly
Hot Result [1, 5]: melted
RT result [1, 6]: partially
Hot to RT result [1, 6]: partially soluble
RT to Cold result [1, 6]: slightly soluble
Hot Result [1, 6]: melted
RT result [1, 7]: partially
Hot to RT result [1, 7]: partially soluble
RT to Cold result [1, 7]: mostly insoluble
Hot Result [1, 7]: soluble
RT result ([1]; EtOH, approx conc. 100 mg/mL): partially
Hot to RT result ([1]; EtOH, approx conc. 100 mg/mL): slightly soluble
RT to Cold result ([1]; EtOH, approx conc. 100 mg/mL): partially soluble-
Hot Result ([1]; EtOH, approx conc. 100 mg/mL): soluble
RT result ([1]; IPA, approx conc. 100 mg/mL): soluble
Hot to RT result ([1]; IPA, approx conc. 100 mg/mL): soluble
RT to Cold result ([1]; IPA, approx conc. 100 mg/mL): partially soluble-
Hot Result ([1]; IPA, approx conc. 100 mg/mL): soluble
RT result ([1]; MeCN, approx conc. 100 mg/mL): soluble
Hot to RT result ([1]; MeCN, approx conc. 100 mg/mL): soluble
RT to Cold result ([1]; MeCN, approx conc. 100 mg/mL): mostly soluble-
Hot Result ([1]; MeCN, approx conc. 100 mg/mL): soluble
RT result ([1]; MeOH, approx conc. 100 mg/mL): slightly
Hot to RT result ([1]; MeOH, approx conc. 100 mg/mL): slightly soluble
RT to Cold result ([1]; MeOH, approx conc. 100 mg/mL): insoluble-long needles
Hot Result ([1]; MeOH, approx conc. 100 mg/mL): soluble
RT result ([1]; THF, approx conc. 100 mg/mL): soluble
Hot to RT result ([1]; THF, approx conc. 100 mg/mL): soluble
RT to Cold result ([1]; THF, approx conc. 100 mg/mL): soluble
Hot Result ([1]; THF, approx conc. 100 mg/mL): soluble
RT result ([1]; water, approx conc. 10 mg/mL): insoluble
Hot to RT result ([1]; water, approx conc. 10 mg/mL): insoluble
RT to Cold result ([1]; water, approx conc. 10 mg/mL): insoluble
Hot Result ([1]; water, approx conc. 10 mg/mL): insoluble
Kp at 8 h ([3]; brain and plasma, read-out: Brain:Plasma Ratio): 7
concentration at 8 h ([3]; brain, read-out: C9 [Brain]): 27900 ng/g
concentration at 8 h ([3]; plasma, read-out: C9 [Plasma]): 3830 ng/mL
Compound: CCCCCCCCCC1=C(C)C(=O)C(C)=C(C)C1=O [Compound C9, 2,3,5-trimethyl-6-nonylcyclohexa-2,5-diene-1,4-dione]
EC50 ([2]; Iron citrate (100 μM) + BSO (100 μM)): 5 nM
EC50 ([2]; Iron citrate (200 μM) + BSO (100 μM)): 12 nM
